# Data from PubChem BioAssay AID489040 (Sanford-Burnham Center for Chemical Genomics, 2010).
# pEC50: −log10 of the molar value. Activity calls are given as the source filed them.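 The calls were made as follows: active = mean half-maximal activating concentration from the dose-response fit at or below a set limit; inactive = the rest.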
# Molecular target: CHO-XBP1 luciferase reporter, IRE1-XBP1 UPR activation
# Test: XBP1 luciferase reporter activation – CHO-XBP1 cells, luminescence, counter-screen for apoptotic UPR arm activators, dose response (AID 489040);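 also: reporter read after six hours of compound exposure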
Compound,EC50,pEC50
CC(=O)c1cccc(NC(=O)CSc2ncc(C(=O)Nc3ccccc3)c(=O)n2C)c1,> 80 µM (inactive),
O=C(Nc1ccc(-c2nc3ncccc3o2)cc1)c1ccc([N+](=O)[O-])o1,> 80 µM (inactive),
CC1(C)C=Cc2c(c3c(c4c(=O)c(-c5ccc(O)cc5)coc24)OC(C)(C)CC3)O1,inactive,
Cc1cnc(NC(=O)c2cc(S(=O)(=O)N(C)C)ccc2N2CCCC2)s1,,5.48
COc1ccc(NS(=O)(=O)c2ccc3ccccc3c2)c2ncccc12,> 80 µM (inactive),
Cc1ccc2c(C(=O)CCl)c(C)[nH]c2c1,> 80 µM (inactive),
S=C1SCN(Cc2ccco2)CN1Cc1ccco1,> 80 µM (inactive),
CC(=O)Oc1ccc(OC(C)=O)c(SCCCCCN2CCOCC2)c1,> 80 µM (inactive),
C[C@@H](NC(=O)c1coc(=O)c(Br)c1)c1ccccc1,> 80 µM (inactive),
CCCN(CCC)C(=O)c1cc([N+](=O)[O-])cc2c1-c1ccc([N+](=O)[O-])cc1C2=C(C#N)C#N,> 80 µM (inactive),
CC1=NN(c2cccc(C(=O)O)c2)C(=O)/C1=C\C=C/c1ccccc1,> 80 µM (inactive),
CCOC(=O)N1CCN(Cc2ccc(O)c3ncccc23)CC1,> 80 µM (inactive),
CCOC(=O)c1c(C)oc2c1c(C(c1cccnc1)N1CCCCC1)c(O)c1ccccc12 (centres undefined),> 80 µM (inactive),
Cc1ccc(C(=O)/C=C/C(=O)c2ccc(C)cc2)cc1,> 80 µM (inactive),
O=[N+]([O-])c1ccc(C=Nc2ccc(Cl)cc2Cl)s1,> 80 µM (inactive),
FC(F)(F)c1nnc2c(Sc3ccccc3)nc3ccc(Cl)cc3n12,,5.01
CC(=O)c1cccc(N=Cc2c(O)c3ccccc3oc2=O)c1,,4.81
O=C1NC(=O)N(CCc2ccc(F)cc2)C(=O)/C1=C/C=C/c1ccccc1,> 80 µM (inactive),
Cc1ccnc(Nc2nc(-c3ccc(O)c(O)c3)cs2)c1,> 80 µM (inactive),
COc1cc(SC#N)ccc1N=Cc1c(C)[nH]n(-c2ccc(Cl)cc2)c1=O,,4.80
COc1cc(/C=C(/C#N)c2nc3ccccc3[nH]2)ccc1OCC(=O)Nc1ccccc1C(C)C,> 80 µM (inactive),
COc1cc(CNc2ccc3[nH]c(=O)[nH]c3c2)cc(Br)c1OCc1ccccc1F,> 80 µM (inactive),
COCCN1CSC(=S)N(Cc2ccco2)C1,> 80 µM (inactive),
O=C(NCc1cccnc1)/C(=C\c1ccc(-c2ccc(Br)cc2)o1)S(=O)(=O)c1ccccc1,> 80 µM (inactive),
O=C(NC(=S)Nc1ccc(NC(=O)c2cccs2)cc1)c1cc2ccccc2o1,> 80 µM (inactive),

Compound,EC50,pEC50
O=C(/C=C/Sc1ccccc1)c1ccc(Cl)cc1,> 80 µM (inactive),
Cc1cc(C)cc(NC(=O)/C(C#N)=C/c2cn(CC(=O)NCc3ccco3)c3ccccc23)c1,> 80 µM (inactive),
CC1=C(CC/C(C)=N/NC(N)=S)C(C)(C)CCC1,inactive,
COc1ccc(/C=N/Nc2cc(C)nc(-n3nc(C)cc3C)n2)c(OC)c1,> 80 µM (inactive),
Oc1c(CN2CCCCC2)cc(Br)c2cccnc12,> 80 µM (inactive),
CC(C)(C)N1CSC(=S)N(Cc2ccccc2)C1,> 80 µM (inactive),
C=CCSC(=C(C#N)C#N)c1cc2c([nH]1)CCCC2,> 80 µM (inactive),
Cc1ccc(C(=O)Oc2ccc(Cl)c3cccnc23)cc1[N+](=O)[O-],> 80 µM (inactive),
O=C(CCC(=O)Nc1ccc(Cl)cc1Cl)N/N=C/c1ccc([N+](=O)[O-])o1,> 80 µM (inactive),
C/C(=N\NC(=O)C(C)Oc1ccc([N+](=O)[O-])cc1)c1ccccn1 (centres undefined),> 80 µM (inactive),
O=C(CCl)N1N=C(c2cccs2)CC1c1ccco1 (centres undefined),> 80 µM (inactive),
Cc1ccc(NC(=O)COc2ccc(/C=C3/SC(=Nc4ccccc4)N(Cc4cccnc4)C3=O)cc2)cc1,inactive,
CCOC(=O)N1CCN(S(=O)(=O)c2ccc(C(=O)Nc3nc4c(s3)CC(C)CC4)cc2)CC1 (centres undefined),> 80 µM (inactive),
O=C(Nc1ccc(C(F)(F)F)cc1)c1cc(-c2cccnc2)nc2ccc(Br)cc12,,5.20
Oc1c(Cl)cc(CN2CCCCC2)c2cccnc12,> 80 µM (inactive),
Cc1cccc(CS(=O)(=O)c2ncc(Cl)c(C(=O)Nc3ccc(F)cc3)n2)c1,> 80 µM (inactive),
O=C(COc1ccc2ccccc2c1)N1CCN(Cc2c[nH]c3ccccc23)CC1,> 80 µM (inactive),
Oc1c(C(c2ccccc2Cl)N2CCCC2)ccc2cccnc12 (centres undefined),> 80 µM (inactive),
CC1=C(/C=C/C(C)=C/C=C/C(C)=C/C(=O)Nc2ccc(O)cc2)C(C)(C)CCC1,> 80 µM (inactive),
CCOC(=O)c1c(-c2ccc(-c3ccccc3)cc2)csc1NC(=O)CNCCN(C)C,> 80 µM (inactive),
C/C(=N\NC(=O)c1cc(Br)ccc1O)c1ccccn1,> 80 µM (inactive),
Oc1ccc2ccccc2c1N=Nc1ccccn1,> 80 µM (inactive),
Cc1cccnc1Nc1nc(-c2ccc(O)c(O)c2)cs1,inactive,
COc1ccc(NC(=O)c2nc(S(=O)(=O)Cc3cccc(C)c3)ncc2Cl)c(OC)c1,> 80 µM (inactive),
Cc1nc(NC(=O)/C=C/c2ccccc2)n[nH]1,> 80 µM (inactive),

Compound,EC50,pEC50
COc1ccccc1N=Cc1c(O)c2ccccc2oc1=O,,5.09
O=C(Nc1nc(-c2ccccn2)cs1)c1ccc(Br)s1,inactive,
Cc1cc(C)c(C(CC(=O)c2cccs2)C(C#N)C#N)c(C)c1 (centres undefined),> 80 µM (inactive),
COC(=O)C1=C(C)N(c2ccc(C)c(C)c2)/C(=C/c2cccs2)C1=O,> 80 µM (inactive),
FC(F)(F)c1nnc(-c2ccccc2)nc1Sc1ccccc1,> 80 µM (inactive),
CCOc1ccc(N2C(=O)CC(N(O)c3ccccc3)C2=O)cc1 (centres undefined),> 80 µM (inactive),
CCOC(=O)/C(=C\c1ccccc1)C(=O)c1cc(C(C)=O)c(Nc2ccccc2)s1,> 80 µM (inactive),
Cc1ccc(S(=O)(=O)Nc2cccc3cccnc23)c([N+](=O)[O-])c1,> 80 µM (inactive),
CC(C)CNC(=O)c1coc(=O)c(Br)c1,> 80 µM (inactive),
O=C1NC(=S)NC(=O)C1=Cc1ccc(Br)s1,> 80 µM (inactive),
O=C(CCl)Nc1cccc(S(=O)(=O)NC2=NCCCCC2)c1,> 80 µM (inactive),
CC1=NOC(=O)/C1=C/c1ccc(-c2ccc(Cl)cc2)o1,> 80 µM (inactive),
O=C(NCCc1ccc(F)cc1)c1coc(=O)c(Br)c1,> 80 µM (inactive),
CSc1nnc(NC(=O)c2nc(S(=O)(=O)Cc3ccc(C)cc3)ncc2Cl)s1,> 80 µM (inactive),
O=C(c1cccs1)N(C(=O)c1cccs1)c1ccc(Br)cn1,,4.75
O=C(C=C=Nc1ccccc1)C(=O)N=C=Cc1ccccc1,> 80 µM (inactive),
O=C(CSc1cccc2cccnc12)N/N=C/c1cccnc1,> 80 µM (inactive),
N#C/C(=C\c1ccc(OCc2ccccc2)cc1)C(=O)Nc1nc2c(s1)CCN(Cc1ccccc1)C2,> 80 µM (inactive),
CCOC(=O)/C(=C\c1ccc(Cl)cc1)c1nc2sc(C)c(C)c2c(=O)[nH]1,> 80 µM (inactive),
Cc1ccc(N2C(=O)NC(=O)/C(=C/C=C/c3ccco3)C2=O)cc1,> 80 µM (inactive),
Cc1ccc(-n2nc3cc(C)c(NC(=S)NC(=O)/C=C/c4ccco4)cc3n2)cc1,inactive,
Cc1cccc(Cn2cc(/C=C/[N+](=O)[O-])c3ccccc32)c1,> 80 µM (inactive),
COc1ccc(Cn2c(SCc3ccc(C)cc3)nc3cc(OC)c(OC)cc3c2=N)cc1Cl,> 80 µM (inactive),
CCCCCCCCCn1c2c(c(=N)c3c1CCC3)CCCC2,inactive,
S=c1[nH]nc(-c2cc(-c3ccccc3)n[nH]2)n1/N=C/C(Br)=C/c1ccccc1,> 80 µM (inactive),

Compound,EC50,pEC50
CC(C)(C)C(=O)N1CCN(c2ccc(NC(=O)c3ccc([N+](=O)[O-])o3)cc2)CC1,> 80 µM (inactive),
O=C1NC(=O)N(Cc2ccccc2Cl)C(=O)/C1=C/c1cccs1,> 80 µM (inactive),
COc1ccccc1N1C(=O)C=C(Sc2nc(C)cc(C)n2)C1=O,> 80 µM (inactive),
O=C(COc1ccc(/C=N/NC(=O)c2cc3ccccc3o2)cc1Br)Nc1ccccc1,,5.33
CCOc1ccc(-c2nnc(SCC(=O)Nc3ccc4c(c3)c3ccccc3n4CC)n2N)cc1,> 80 µM (inactive),
Cc1ccc(CS(=O)(=O)c2ncc(Cl)c(C(=O)Nc3nnc(C(C)C)s3)n2)cc1,> 80 µM (inactive),
COC(=O)c1c(NC(=O)CC2Nc3ccccc3NC2=O)sc(C)c1C (centres undefined),> 80 µM (inactive),
Oc1ccc(-c2csc(Nc3ccccn3)n2)cc1O,> 80 µM (inactive),
Cc1ccc2oc(Nc3nc(-c4ccccc4)cc(=O)[nH]3)nc2c1,> 80 µM (inactive),
COc1ccc(/C=C/C(=O)Oc2ccc(C)cc2)cc1,> 80 µM (inactive),
O=C(N/N=C/c1cccc([N+](=O)[O-])c1)c1cc2c(ccc3ccccc32)o1,> 80 µM (inactive),
CC1=C/C(=N\OC(=O)/C=C/c2ccccc2)C(C)=CC1=O,> 80 µM (inactive),
COc1cc(OC)cc(C(=O)NC(=S)Nc2cc3oc4ccccc4c3cc2OC)c1,> 80 µM (inactive),
CCc1nnc(NC(=O)c2nc(S(=O)(=O)Cc3ccc(C)cc3)ncc2Cl)s1,> 80 µM (inactive),
S=C(Nc1ccccc1)Nc1nccs1,> 80 µM (inactive),
CC(C)N1C/C(=C/c2ccsc2)C(=O)/C(=C/c2ccsc2)C1,> 80 µM (inactive),
CCc1cccc2sc(N3CCN(C(=O)c4ccc([N+](=O)[O-])o4)CC3)nc12,> 80 µM (inactive),
Cn1c(-c2cccc(OCc3ccccc3)c2)nc2c1c(=O)[nH]c(=O)n2Cc1ccccc1,> 80 µM (inactive),
Cc1cc(-n2c(C)cc(C(=O)CCl)c2C)no1,> 80 µM (inactive),
COc1cccc(N=Cc2c(O)c3ccccc3oc2=O)c1,> 80 µM (inactive),
CC(C)c1ccc(NC(=O)/C(C#N)=C/c2ccncc2)cc1,> 80 µM (inactive),
O=C(/C=C/Sc1ccccc1)c1ccccc1,> 80 µM (inactive),
CN1CCN(Cc2cc(COCc3ccccc3)c3cccnc3c2O)CC1,inactive,
COc1cc(/C=C/[N+](=O)[O-])ccc1O,> 80 µM (inactive),
